The test system of this test is horny layer of the lower inner arm. Put plainly: Retention of moisturizing effect: water content in the horny layer by impedance meter (Example 2). Format: in vivo, human. The settings on record: 20° C., humidity 30%, average N=10; for Retention of moisturizing effect (water content in the horny layer), After 3 hr.: after additional 3 hours, washed with hot water again; for Retention of moisturizing effect (water content in the horny layer), After 15 min.: applied 1 hour, washed off with hot water, 15 minutes after. The protocol: Cosmetics of their corresponding formulations shown in Table 7 were prepared to determine the retention of their moisturizing effects.
A fixed amount of each of the above samples was applied to the lower inner arm of a volunteer and washed off with hot water after left at rest for 1 hour. The volunteer was got to enter an air-conditioned room kept at a temperature of 20° C. and a humidity of 30%. Fifteen minutes after that, the water content in the horny layer of the volunteer was measured by an impedance meter (manufactured by IBS Company). After additional 3 hours, the treated arm was washed with hot water again. Fifty minutes after that, the water content was measured in the same manner as described above. The values shown in the table were average values (N=10).

The values that follow come from patent US6932975B2, “Cosmetic composition comprising a phosphoric triester and a skin activating component” (Kao Corporation, priority 1997, dated 2005).

`CCCCOCCOP(=O)(OCCOCCCC)OCCOCCCC` [Comparative product 9, Tris(butoxyethyl) phosphate]: the “Retention of moisturizing effect (water content in the horny layer), After 3 hr.” value (shortened to “Retention of moisturizing effect … After 3 hr.”) is on record as 40 μΩ^−1 and the “Retention of moisturizing effect (water content in the horny layer), After 15 min.” value (“Retention of moisturizing effect … After 15 min.” for short) amounted to 70 μΩ^−1.

Take `OCC(O)CO` [Comparative product 11, Glycerol]: the “Retention of moisturizing effect … After 3 hr.” value is on record as 45 μΩ^−1 and the “Retention of moisturizing effect … After 15 min.” value turned out to be 75 μΩ^−1.

`O` [Comparative product 12, Purified water]: the “Retention of moisturizing effect … After 3 hr.” value was 40 μΩ^−1 and the “Retention of moisturizing effect … After 15 min.” value worked out at 60 μΩ^−1.

As to “Bis(butoxyethoxyethyl)ethyl phosphate [Comparative product 8]”, the “Retention of moisturizing effect … After 3 hr.” value is on record as 40 μΩ^−1 and the “Retention of moisturizing effect … After 15 min.” value came to 70 μΩ^−1.
